From US7598397B2, “Sulfonamide peri-substituted bicyclics for occlusive artery disease” (deCODE genetics ehf, priority 2004, dated 2009)

Molecular target: T1, prostanoid EP3 receptors (Homo sapiens, UniProt P43115)
T1 sequence (P43115 1-390): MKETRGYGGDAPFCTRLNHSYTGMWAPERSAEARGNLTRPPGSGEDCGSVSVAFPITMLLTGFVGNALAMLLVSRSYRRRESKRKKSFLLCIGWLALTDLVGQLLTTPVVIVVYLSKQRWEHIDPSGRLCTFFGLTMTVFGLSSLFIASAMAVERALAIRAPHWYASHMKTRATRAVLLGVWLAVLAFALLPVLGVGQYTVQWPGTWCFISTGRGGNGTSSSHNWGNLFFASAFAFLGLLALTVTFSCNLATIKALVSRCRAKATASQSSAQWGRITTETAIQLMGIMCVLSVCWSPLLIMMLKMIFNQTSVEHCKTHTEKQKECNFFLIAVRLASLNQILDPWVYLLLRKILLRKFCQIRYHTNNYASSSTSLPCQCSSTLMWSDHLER
Experiment: binding on prostanoid EP3 receptors (method of Abramovitz et al.)
Settings: read-out: Activity (EP3 receptor binding, IC50 class)
Experimental: The compounds of the invention were assayed for their binding on prostanoid EP3 receptors according to the method of Abramovitz et al. [Bioch. Biophys.

| SMILES | IC50 [nM] |
| --- | --- |
| CC12CCCC(C=CC(=O)NS(=O)(=O)c3ccc(F)c(F)c3)=C1N(Cc1ccc(F)c(F)c1)C(=O)C2 (centres unmarked) [Compound P304] | < 1000 |
| CC12CCCC(C=CC(=O)NS(=O)(=O)c3cc(F)cc(F)c3)=C1N(Cc1ccc(F)c(F)c1)C(=O)C2 (centres unmarked) [Compound P305] | < 1000 |
| COc1cccc(CN2C(=O)CC3(C)CCCC(C=CC(=O)NS(=O)(=O)c4cc(F)c(F)cc4F)=C23)c1 (centres unmarked) [Compound P306] | < 1000 |
| COc1cccc(CN2C(=O)CC3(C)CCCC(C=CC(=O)NS(=O)(=O)c4cc(F)cc(F)c4)=C23)c1 (centres unmarked) [Compound P307] | < 1000 |
| COc1cccc(CN2C(=O)CC3(C)CCCC(C=CC(=O)NS(=O)(=O)c4ccc(F)c(F)c4)=C23)c1 (centres unmarked) [Compound P308] | < 1000 |
| Cn1cc(C=CC(=O)NS(=O)(=O)c2cc(F)c(F)cc2F)c2c(Oc3ccc(Cl)cc3)cccc21 [Compound P309] | < 1000 |
| Cn1cc(C=CC(=O)NS(=O)(=O)c2ccc(F)c(F)c2)c2c(Oc3ccc(Cl)cc3)cccc21 [Compound P310] | < 1000 |
| Cn1cc(/C=C/C(=O)NS(=O)(=O)c2cc(Cl)c(Cl)s2)c2c(Oc3ccc(Cl)cc3)cccc21 [Compound P311] | < 1000 |
| Cc1cn(Cc2ccc(F)cc2)c2c(C=CC(=O)NS(=O)(=O)c3cc(F)c(F)cc3F)cc(F)cc12 [Compound P312] | < 1000 |
| Cc1cn(Cc2ccc(F)cc2)c2c(C=CC(=O)NS(=O)(=O)c3ccc(F)c(F)c3)cc(F)cc12 [Compound P314] | < 1000 |
| Cc1cn(Cc2ccc(F)c(F)c2)c2c(C=CC(=O)NS(=O)(=O)c3ccc(F)c(F)c3)cc(F)cc12 [Compound P315] | < 1000 |
| Cc1cn(Cc2ccc(F)cc2)c2c(C=CC(=O)NS(=O)(=O)c3cc(F)cc(F)c3)cc(F)cc12 [Compound P316] | < 1000 |
| Cn1cc(C=CC(=O)NS(=O)(=O)c2cc(F)c(F)cc2F)c2c(Oc3ccc(F)c(F)c3)cccc21 [Compound P318] | < 1000 |
| Cn1cc(C=CC(=O)NS(=O)(=O)c2ccc(F)c(F)c2)c2c(Oc3ccc(F)c(F)c3)cccc21 [Compound P319] | < 1000 |
| Cn1cc(C=CC(=O)NS(=O)(=O)c2cc(Cl)c(Cl)s2)c2c(Oc3ccc(F)c(F)c3)cccc21 [Compound P320] | < 1000 |
| Cn1cc(C=CC(=O)NS(=O)(=O)c2cc(F)c(F)cc2F)c2c(Oc3ccc(F)cc3F)cccc21 [Compound P324] | < 1000 |
| Cn1cc(/C=C/C(=O)NS(=O)(=O)c2cc(Cl)c(Cl)s2)c2c(Oc3ccc(F)cc3F)cccc21 [Compound P326] | < 1000 |
| Cn1cc(C=CC(=O)NS(=O)(=O)c2cc(F)c(F)cc2F)c2c(Oc3ccc(F)c(Cl)c3)cccc21 [Compound P328] | < 1000 |
| Cn1cc(C=CC(=O)NS(=O)(=O)c2cc(Cl)c(Cl)s2)c2c(Oc3ccc(F)c(Cl)c3)cccc21 [Compound P330] | < 1000 |
| Cn1cc(C=CC(=O)NS(=O)(=O)c2cc(F)c(F)cc2F)c2c(Oc3ccc(Cl)c(F)c3)cccc21 [Compound P331] | < 1000 |
| Cn1cc(C=CC(=O)NS(=O)(=O)c2ccc(F)c(F)c2)c2c(Oc3ccc(Cl)c(F)c3)cccc21 [Compound P332] | < 1000 |
| Cn1cc(/C=C/C(=O)NS(=O)(=O)c2cc(Cl)c(Cl)s2)c2c(Oc3ccc(Cl)c(F)c3)cccc21 [Compound P333] | < 1000 |
| Cn1cc(/C=C/C(=O)NS(=O)(=O)c2ccc(F)c(F)c2)c2c(Oc3ccc4ccccc4c3)cccc21 [Compound P334] | < 1000 |
| Cc1cn(Cc2ccc(Cl)cc2Cl)c2c(C=CC(=O)NS(=O)(=O)c3ccc(F)c(F)c3)cc(F)cc12 [Compound P335] | < 1000 |
| Cn1cc(C=CC(=O)NS(=O)(=O)c2cc(F)c(F)cc2F)c2c(Oc3ccc(Cl)cc3F)cccc21 [Compound P337] | < 1000 |

| SMILES | IC50 [nM] |
| --- | --- |
| Cn1cc(C=CC(=O)NS(=O)(=O)c2ccc(F)c(F)c2)c2c(Oc3ccc(Cl)cc3F)cccc21 [Compound P338] | < 1000 |
| Cn1cc(/C=C/C(=O)NS(=O)(=O)c2cc(Cl)c(Cl)s2)c2c(Oc3ccc(Cl)cc3F)cccc21 [Compound P339] | < 1000 |
| Cn1cc(C=CC(=O)NS(=O)(=O)c2cc(F)c(F)cc2F)c2c(Oc3ccc(F)cc3Cl)cccc21 [Compound P340] | < 1000 |
| Cn1cc(C=CC(=O)NS(=O)(=O)c2ccc(F)c(F)c2)c2c(Oc3ccc(F)cc3Cl)cccc21 [Compound P341] | < 1000 |
| Cn1cc(C=CC(=O)NS(=O)(=O)c2cc(Cl)c(Cl)s2)c2c(Oc3ccc(F)cc3Cl)cccc21 [Compound P342] | < 1000 |
| Cn1cc(/C=C/C(=O)NS(=O)(=O)c2cc(F)c(F)cc2F)c2c(Oc3ccc4ccccc4c3)cccc21 [Compound P343] | < 1000 |
| CCOC(=O)C12CCCC(C=CC(=O)NS(=O)(=O)c3cc(F)c(F)cc3F)=C1N(Cc1ccc(Cl)cc1Cl)C(=O)C2 (centres unmarked) [Compound P344] | < 1000 |
| CCOC(=O)C12CCCC(C=CC(=O)NS(=O)(=O)c3cc(Cl)c(Cl)s3)=C1N(Cc1ccc(Cl)cc1Cl)C(=O)C2 (centres unmarked) [Compound P345] | < 1000 |
| CCOC(=O)C12CCCC(C=CC(=O)NS(=O)(=O)c3ccc(F)c(F)c3)=C1N(Cc1ccc(Cl)cc1Cl)C(=O)C2 (centres unmarked) [Compound P346] | < 1000 |
| Cc1cn(Cc2ccc(Cl)cc2Cl)c2c(C=CC(=O)NS(=O)(=O)c3cc(Cl)c(Cl)s3)cncc12 [Compound P348] | < 1000 |
| Cn1cc(C=CC(=O)NS(=O)(=O)c2ccc(F)cc2)c2c(Oc3ccc4ccccc4c3)cccc21 [Compound P351] | < 1000 |
| Cn1cc(C=CC(=O)NS(=O)(=O)c2ccccc2Cl)c2c(Oc3ccc4ccccc4c3)cccc21 [Compound P352] | < 1000 |
| Cn1cc(C=CC(=O)NS(=O)(=O)c2cccc(Cl)c2)c2c(Oc3ccc4ccccc4c3)cccc21 [Compound P353] | < 1000 |
| Cn1cc(C=CC(=O)NS(=O)(=O)c2ccc(Cl)c(Cl)c2)c2c(Oc3ccc4ccccc4c3)cccc21 [Compound P355] | < 1000 |
| Cn1cc(C=CC(=O)NS(=O)(=O)c2ccc(Cl)cc2Cl)c2c(Oc3ccc4ccccc4c3)cccc21 [Compound P356] | < 1000 |
| Cn1cc(C=CC(=O)NS(=O)(=O)c2cc(Cl)cc(Cl)c2)c2c(Oc3ccc4ccccc4c3)cccc21 [Compound P357] | < 1000 |
| Cn1cc(C=CC(=O)NS(=O)(=O)c2ccc(F)cc2F)c2c(Oc3ccc4ccccc4c3)cccc21 [Compound P358] | < 1000 |
| Cn1cc(C=CC(=O)NS(=O)(=O)c2cc(F)ccc2F)c2c(Oc3ccc4ccccc4c3)cccc21 [Compound P359] | < 1000 |
| Cn1cc(C=CC(=O)NS(=O)(=O)c2c(F)cccc2F)c2c(Oc3ccc4ccccc4c3)cccc21 [Compound P360] | < 1000 |
| Cn1cc(C=CC(=O)NS(=O)(=O)c2cc(F)cc(F)c2)c2c(Oc3ccc4ccccc4c3)cccc21 [Compound P361] | < 1000 |
| Cn1cc(CCC(=O)NS(=O)(=O)c2ccc(F)c(F)c2)c2c(Oc3ccc4ccccc4c3)cccc21 [Compound P362] | < 1000 |
| Cn1cc(C=CC(=O)NS(=O)(=O)c2cccc(F)c2)c2c(Oc3ccc4ccccc4c3)cccc21 [Compound P363] | < 1000 |
| Cn1cc(C=CC(=O)NS(=O)(=O)c2ccccc2F)c2c(Oc3ccc4ccccc4c3)cccc21 [Compound P364] | < 1000 |
| Cn1cc(C=CC(=O)NS(=O)(=O)c2ccc(Cl)cc2)c2c(Oc3ccc4ccccc4c3)cccc21 [Compound P365] | < 1000 |
| COc1ccc(S(=O)(=O)NC(=O)C=Cc2cn(C)c3cccc(Oc4ccc5ccccc5c4)c23)cc1 [Compound P366] | < 1000 |
